In article PMC10247784, “Physiological activation of human and mouse bitter taste receptors by bile acids” (Communications Biology, 2023):
Several values for one entry are separate records, joined by “and”; a condition that tells them apart may be missing. Equal values may be shown once.

Target: T1, human TAS2R14 (Homo sapiens, UniProt Q9NYV8)
T1 construct: expressed in transfected cells; host or cells: HEK293T-Gα16gust44
T1 sequence (Q9NYV8 1-317): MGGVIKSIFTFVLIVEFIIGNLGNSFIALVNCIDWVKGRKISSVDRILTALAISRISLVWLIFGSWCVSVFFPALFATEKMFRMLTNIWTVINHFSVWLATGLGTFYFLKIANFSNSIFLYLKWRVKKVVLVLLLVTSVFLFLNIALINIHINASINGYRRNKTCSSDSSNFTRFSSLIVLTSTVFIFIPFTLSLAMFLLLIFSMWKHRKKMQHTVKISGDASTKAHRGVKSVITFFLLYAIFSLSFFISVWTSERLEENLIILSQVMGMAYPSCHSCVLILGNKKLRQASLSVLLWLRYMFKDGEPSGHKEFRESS
Assay: Calcium imaging assay (FLIPR), HEK293T-Gα16gust44 cells transfected with human TAS2R14
Format: cell-based
Conditions: for RLU: TAS2R14 trace
In short: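 Fluo-4 calcium responses; ΔF/F corrected for mock transfection and buffer control; triplicate independent dose-response runs; p < 0.01 threshold.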

For `C[C@H](CCC(=O)NCCS(=O)(=O)O)[C@H]1CC[C@H]2[C@@H]3[C@H](O)C[C@@H]4C[C@H](O)CC[C@]4(C)[C@H]3C[C@H](O)[C@]12C` [Taurocholic Acid, taurocholic acid], the “Efficacy = maximal amplitude (ΔF/F)” value (TAS2R14, bile acids, mean) was 0.2246, the “Efficacy (maximal amplitude ΔF/F), individual data points” value (TAS2R14, bile acids, single replicates, listed as TCA) was 0.1896 and 0.238 and 0.2462 and the “Δ F/F” value (TAS2R14, conc. 0,01 mM) was -0.01734. The “Δ F/F” value (TAS2R14, conc. 0,1 mM) was -0.007315, the “Δ F/F” value (TAS2R14, conc. 0,03 mM) was -0.005139 and the “Δ F/F” value (TAS2R14, conc. 0,3 mM) was 0.03332. For the same molecule, the “Δ F/F” value (TAS2R14, conc. 0,001 mM) was -0.02529, the “Δ F/F” value (TAS2R14, conc. 1 mM) was 0.2246 and the “Δ F/F” value (TAS2R14, conc. 0,003 mM) was -0.01812. For the same molecule, the RLU (Time (s) 0) was 0 RLU, the RLU (Time (s) 2 (Taurocholic Acid 2.016)) was 15.4574 RLU and the RLU (Time (s) 4 (Taurocholic Acid 4.016)) was -13.3747 RLU. The RLU (Time (s) 6 (Taurocholic Acid 6.016)) was -38.8354 RLU, the RLU (Time (s) 8 (Taurocholic Acid 8.016)) was -33.6332 RLU and the RLU (Time (s) 12 (Taurocholic Acid 12.016)) was -53.4595 RLU. It also gave an RLU (Time (s) 14 (Taurocholic Acid 14.016)) of -55.3521 RLU, an RLU (Time (s) 16 (Taurocholic Acid 16.016)) of -65.1913 RLU and an RLU (Time (s) 18 (Taurocholic Acid 18.016)) of -43.8232 RLU. It also gave an RLU (Time (s) 18.797 (Chenodeoxycholic Acid 18.765)) of -59.7397 RLU, an RLU (Time (s) 20.797 (Chenodeoxycholic Acid 20.781)) of -48.6104 RLU and an RLU (Time (s) 22.797 (Chenodeoxycholic Acid 22.781)) of -37.2936 RLU. It also gave an RLU (Time (s) 24.797 (Chenodeoxycholic Acid 24.781)) of -25.1873 RLU, an RLU (Time (s) 26.797 (Chenodeoxycholic Acid 26.781)) of -30.6749 RLU and an RLU (Time (s) 28.797 (Chenodeoxycholic Acid 28.781)) of 4.524 RLU. It also gave an RLU (Time (s) 30.797 (Chenodeoxycholic Acid 30.781)) of -8.18 RLU, an RLU (Time (s) 32.797 (Chenodeoxycholic Acid 32.781)) of 30.1537 RLU and an RLU (Time (s) 34.797 (Chenodeoxycholic Acid 34.781)) of 70.0865 RLU. For the same molecule, the RLU (Time (s) 36.797 (Chenodeoxycholic Acid 36.781)) was 98.6425 RLU, the RLU (Time (s) 38.797 (Chenodeoxycholic Acid 38.781)) was 134.228 RLU and the RLU (Time (s) 40.797 (Chenodeoxycholic Acid 40.781)) was 192.709 RLU. The RLU (Time (s) 42.797 (Chenodeoxycholic Acid 42.781)) was 232.913 RLU, the RLU (Time (s) 44.797 (Chenodeoxycholic Acid 44.781)) was 243.453 RLU and the RLU (Time (s) 46.797 (Chenodeoxycholic Acid 46.781)) was 297.017 RLU. The RLU (Time (s) 48.797 (Chenodeoxycholic Acid 48.781)) was 343.953 RLU, the RLU (Time (s) 50.797 (Chenodeoxycholic Acid 50.781)) was 379.622 RLU and the RLU (Time (s) 52.797 (Chenodeoxycholic Acid 52.781)) was 398.833 RLU. The RLU (Time (s) 54.797 (Chenodeoxycholic Acid 54.781)) was 459.728 RLU, the RLU (Time (s) 56.797 (Chenodeoxycholic Acid 56.781)) was 470.92 RLU and the RLU (Time (s) 58.797 (Chenodeoxycholic Acid 58.781)) was 515.163 RLU. For the same molecule, the RLU (Time (s) 60.797 (Chenodeoxycholic Acid 60.781)) was 529.36 RLU, the RLU (Time (s) 62.797 (Chenodeoxycholic Acid 62.781)) was 543.404 RLU and the RLU (Time (s) 64.797 (Chenodeoxycholic Acid 64.781)) was 572.542 RLU. For the same molecule, the RLU (Time (s) 66.797 (Chenodeoxycholic Acid 66.781)) was 570.299 RLU, the RLU (Time (s) 68.797 (Chenodeoxycholic Acid 68.781)) was 602.865 RLU and the RLU (Time (s) 70.797 (Chenodeoxycholic Acid 70.781)) was 609.474 RLU. For the same molecule, the RLU (Time (s) 72.797 (Chenodeoxycholic Acid 72.781)) was 663.572 RLU, the RLU (Time (s) 74.797 (Chenodeoxycholic Acid 74.781)) was 688.158 RLU and the RLU (Time (s) 76.797 (Chenodeoxycholic Acid 76.781)) was 696.58 RLU. It also gave an RLU (Time (s) 78.797 (Chenodeoxycholic Acid 78.781)) of 702.313 RLU, an RLU (Time (s) 80.797 (Chenodeoxycholic Acid 80.781)) of 724.676 RLU and an RLU (Time (s) 82.797 (Chenodeoxycholic Acid 82.781)) of 729.222 RLU. The RLU (Time (s) 84.797 (Chenodeoxycholic Acid 84.781)) was 755.668 RLU, the RLU (Time (s) 86.797 (Chenodeoxycholic Acid 86.781)) was 758.133 RLU and the RLU (Time (s) 88.797 (Chenodeoxycholic Acid 88.781)) was 801.791 RLU. For the same molecule, the RLU (Time (s) 90.797 (Chenodeoxycholic Acid 90.781)) was 813.667 RLU, the RLU (Time (s) 92.797 (Chenodeoxycholic Acid 92.781)) was 823.99 RLU and the RLU (Time (s) 94.797 (Chenodeoxycholic Acid 94.781)) was 849.724 RLU. It also gave an RLU (Time (s) 96.797 (Chenodeoxycholic Acid 96.781)) of 840.46 RLU, an RLU (Time (s) 98.797 (Chenodeoxycholic Acid 98.781)) of 832.423 RLU and an RLU (Time (s) 100.797 (Chenodeoxycholic Acid 100.781)) of 870.888 RLU. It also gave an RLU (Time (s) 102.797 (Chenodeoxycholic Acid 102.781)) of 887.784 RLU, an RLU (Time (s) 104.797 (Chenodeoxycholic Acid 104.781)) of 895.487 RLU and an RLU (Time (s) 106.797 (Chenodeoxycholic Acid 106.781)) of 886.141 RLU. The RLU (Time (s) 108.797 (Chenodeoxycholic Acid 108.781)) was 931.883 RLU, the RLU (Time (s) 110.797 (Chenodeoxycholic Acid 110.781)) was 935.64 RLU and the RLU (Time (s) 112.797 (Chenodeoxycholic Acid 112.781)) was 971.794 RLU. It also gave an RLU (Time (s) 114.797 (Chenodeoxycholic Acid 114.781)) of 962.409 RLU, an RLU (Time (s) 116.797 (Chenodeoxycholic Acid 116.781)) of 993.706 RLU and an RLU (Time (s) 118.797 (Chenodeoxycholic Acid 118.781)) of 1000.54 RLU. For the same molecule, the RLU (Time (s) 120.797 (Chenodeoxycholic Acid 120.781)) was 1025.82 RLU, the RLU (Time (s) 122.797 (Chenodeoxycholic Acid 122.781)) was 1039.5 RLU and the RLU (Time (s) 124.797 (Chenodeoxycholic Acid 124.781)) was 1041.39 RLU. The RLU (Time (s) 126.797 (Chenodeoxycholic Acid 126.781)) was 1050.25 RLU, the RLU (Time (s) 128.797 (Chenodeoxycholic Acid 128.781)) was 1043.78 RLU and the RLU (Time (s) 130.797 (Chenodeoxycholic Acid 130.781)) was 1042.75 RLU. It also gave an RLU (Time (s) 132.797 (Chenodeoxycholic Acid 132.781)) of 1039.88 RLU, an RLU (Time (s) 134.797 (Chenodeoxycholic Acid 134.781)) of 1050.77 RLU and an RLU (Time (s) 136.797 (Chenodeoxycholic Acid 136.781)) of 1036.12 RLU. It also gave an RLU (Time (s) 137.562 (Taurocholic Acid 137.563, Chenodeoxycholic Acid 137.546)) of 1048.18 RLU, an RLU (Time (s) 143.578 (Taurocholic Acid 143.563, Chenodeoxycholic Acid 143.546)) of 1008.4 RLU and an RLU (Time (s) 149.578 (Taurocholic Acid 149.563, Chenodeoxycholic Acid 149.546)) of 998.739 RLU. For the same molecule, the RLU (Time (s) 155.578 (Taurocholic Acid 155.563, Chenodeoxycholic Acid 155.546)) was 977.028 RLU, the RLU (Time (s) 161.578 (Taurocholic Acid 161.563, Chenodeoxycholic Acid 161.546)) was 958.674 RLU and the RLU (Time (s) 167.578 (Taurocholic Acid 167.563, Chenodeoxycholic Acid 167.546)) was 918.668 RLU. The RLU (Time (s) 173.578 (Taurocholic Acid 173.563, Chenodeoxycholic Acid 173.546)) was 888.356 RLU, the RLU (Time (s) 179.578 (Taurocholic Acid 179.563, Chenodeoxycholic Acid 179.546)) was 847.479 RLU and the RLU (Time (s) 191.578 (Taurocholic Acid 191.563, Chenodeoxycholic Acid 191.546)) was 745.479 RLU. It also gave an RLU (Time (s) 197.578 (Taurocholic Acid 197.563, Chenodeoxycholic Acid 197.546)) of 696.127 RLU, an RLU (Time (s) 209.578 (Taurocholic Acid 209.563, Chenodeoxycholic Acid 209.546)) of 643.487 RLU and an RLU (Time (s) 221.578 (Taurocholic Acid 221.563, Chenodeoxycholic Acid 221.546)) of 526.781 RLU. It also gave an RLU (Time (s) 233.578 (Taurocholic Acid 233.563, Chenodeoxycholic Acid 233.546)) of 416.225 RLU, an RLU (Time (s) 239.578 (Taurocholic Acid 239.563, Chenodeoxycholic Acid 239.546)) of 342.018 RLU and an RLU (Time (s) 245.578 (Taurocholic Acid 245.563, Chenodeoxycholic Acid 245.546)) of 303.535 RLU. The RLU (Time (s) 293.578 (Taurocholic Acid 293.563, Chenodeoxycholic Acid 293.546)) was 127.213 RLU, the RLU (Time (s) 299.578 (Taurocholic Acid 299.563, Chenodeoxycholic Acid 299.546)) was 108.412 RLU and the RLU (Time (s) 305.578 (Taurocholic Acid 305.563, Chenodeoxycholic Acid 305.546)) was 98.929 RLU. For the same molecule, the RLU (Time (s) 311.578 (Taurocholic Acid 311.563, Chenodeoxycholic Acid 311.546)) was 88.6159 RLU, the RLU (Time (s) 317.578 (Taurocholic Acid 317.563, Chenodeoxycholic Acid 317.546)) was 79.3923 RLU and the RLU (Time (s) 323.578 (Taurocholic Acid 323.563, Chenodeoxycholic Acid 323.546)) was 80.4704 RLU. The RLU (Time (s) 329.578 (Taurocholic Acid 329.563, Chenodeoxycholic Acid 329.546)) was 68.4196 RLU, the RLU (Time (s) 335.578 (Taurocholic Acid 335.563, Chenodeoxycholic Acid 335.546)) was 88.4103 RLU and the RLU (Time (s) 341.578 (Taurocholic Acid 341.563, Chenodeoxycholic Acid 341.546)) was 53.5929 RLU. For the same molecule, the RLU (Time (s) 347.578 (Taurocholic Acid 347.563, Chenodeoxycholic Acid 347.546)) was 48.7046 RLU, the RLU (Time (s) 353.578 (Taurocholic Acid 353.563, Chenodeoxycholic Acid 353.546)) was 68.797 RLU and the RLU (Time (s) 359.578 (Taurocholic Acid 359.563, Chenodeoxycholic Acid 359.546)) was 47.7517 RLU. The “Activation threshold concentration TAS2R14” value (lowest concentration with significantly increased fluorescence vs empty vector (p < 0.01)) was 300 µM.
